Test results taken from paper PMC11089506 (Journal of Medicinal Chemistry, 2024).
Entries after “also recorded” stand apart in the source; their conditions may differ. Structures can show the parent of a compound that is named as a salt. Where two headings read alike, the source gives them in different places.

Assays:
Purinergic receptor P2X = test: radioligand competition binding, [3H]α,β-Methylene-ATP; parameters: species or system rat
human 5-HT2BR = target: T1, human 5-HT2BR (Homo sapiens, UniProt P41595); test: Calcium No Wash PLUS assay, 5-HT2BR-HEK293 cells (Eurofins); format: cell-based; settings: fluorescence-based Ca2+ imaging assay
T1 construct: host or cells: HEK293 (membrane homogenates)

Thyroid hormone receptor = test: radioligand competition binding, [125I]Triiodothyronine; parameters: species or system rat
MDR1 (P-gp) = test: MDR1-MDCK II permeability assay; format: in vitro ADME; settings: dog, MDCK-MDR1, pH 7.4
Sigma receptor σ1 = target: T2, Sigma receptor σ1 (Homo sapiens, UniProt Q99720); test: radioligand competition binding, [3H]Pentazocine
T2 construct: Eurofins (contract laboratory)
T2 sequence (Q99720 whole entry): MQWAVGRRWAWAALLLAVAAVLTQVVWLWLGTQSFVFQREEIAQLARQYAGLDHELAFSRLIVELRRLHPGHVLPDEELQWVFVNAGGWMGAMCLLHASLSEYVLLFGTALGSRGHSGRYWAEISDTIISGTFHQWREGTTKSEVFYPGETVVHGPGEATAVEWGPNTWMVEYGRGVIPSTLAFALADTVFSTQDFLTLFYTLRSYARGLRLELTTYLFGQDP

Tachykinin receptor NK3 = target: T3, Tachykinin receptor NK3 (Homo sapiens, UniProt P29371); test: radioligand competition binding, [125I]MePhe7-Neurokinin B
T3 construct: Eurofins (contract laboratory)
T3 sequence (P29371 whole entry): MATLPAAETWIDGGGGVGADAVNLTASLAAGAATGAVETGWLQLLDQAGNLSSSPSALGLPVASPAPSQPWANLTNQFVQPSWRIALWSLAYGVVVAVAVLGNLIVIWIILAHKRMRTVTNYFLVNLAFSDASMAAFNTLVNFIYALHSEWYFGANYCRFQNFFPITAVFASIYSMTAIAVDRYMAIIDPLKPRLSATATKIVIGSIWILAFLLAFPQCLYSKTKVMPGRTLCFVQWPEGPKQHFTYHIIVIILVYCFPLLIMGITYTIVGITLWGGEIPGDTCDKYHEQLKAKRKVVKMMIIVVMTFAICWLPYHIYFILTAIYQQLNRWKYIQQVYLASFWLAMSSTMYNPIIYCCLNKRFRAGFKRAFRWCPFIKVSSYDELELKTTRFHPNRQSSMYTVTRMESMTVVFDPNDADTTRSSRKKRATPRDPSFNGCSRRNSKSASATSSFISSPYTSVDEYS

[1] = target: T4, Leukotriene receptor CysLT1 (Homo sapiens, UniProt Q9Y271); test: radioligand competition binding, [125I]LTD4
T4 construct: Eurofins
T4 sequence (Q9Y271 whole entry): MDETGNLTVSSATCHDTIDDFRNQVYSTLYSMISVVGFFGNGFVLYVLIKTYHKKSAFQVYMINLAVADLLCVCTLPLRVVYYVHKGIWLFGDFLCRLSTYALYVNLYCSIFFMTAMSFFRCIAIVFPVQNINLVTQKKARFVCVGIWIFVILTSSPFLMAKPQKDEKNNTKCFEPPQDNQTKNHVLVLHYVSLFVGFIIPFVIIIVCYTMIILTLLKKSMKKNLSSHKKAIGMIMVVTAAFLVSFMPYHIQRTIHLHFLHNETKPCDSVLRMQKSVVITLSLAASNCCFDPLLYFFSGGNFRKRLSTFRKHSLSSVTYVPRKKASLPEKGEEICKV

[2] = target: T5, α1D (adrenergic receptor) (Homo sapiens, UniProt P25100); test: radioligand competition binding, [3H]Prazosin
T5 construct: Eurofins
T5 sequence (P25100 whole entry): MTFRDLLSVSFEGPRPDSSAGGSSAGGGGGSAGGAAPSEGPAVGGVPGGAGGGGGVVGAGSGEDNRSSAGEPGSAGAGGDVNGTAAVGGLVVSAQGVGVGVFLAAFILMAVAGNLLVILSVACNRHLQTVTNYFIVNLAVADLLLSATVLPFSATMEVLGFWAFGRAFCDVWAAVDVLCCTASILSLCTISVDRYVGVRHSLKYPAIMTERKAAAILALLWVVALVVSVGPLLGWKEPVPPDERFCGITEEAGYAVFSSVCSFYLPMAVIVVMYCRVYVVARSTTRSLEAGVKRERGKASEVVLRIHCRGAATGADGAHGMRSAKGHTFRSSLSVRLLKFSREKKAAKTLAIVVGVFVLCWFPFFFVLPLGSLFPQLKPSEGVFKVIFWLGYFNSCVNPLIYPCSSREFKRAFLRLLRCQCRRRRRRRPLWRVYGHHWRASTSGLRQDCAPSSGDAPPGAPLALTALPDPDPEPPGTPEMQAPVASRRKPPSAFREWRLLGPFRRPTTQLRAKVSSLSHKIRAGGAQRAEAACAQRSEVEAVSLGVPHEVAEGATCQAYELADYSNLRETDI

[3] = LogP / log D determination, 1-octanol/phosphate buffer; format: physicochemical
Procedure: LogP Log D log D log D log D log D log D log D
Phosphate buffer (PB) with the pH ranging from 1.8 to 12.0 and Octanol saturated with water was used. 2 μL of 10 mM DMSO stock solution of test and control compounds was aliquoted into tubes in duplicate. Added 149 μL of PB (pH 1.8, 2.5, 4.5, 7.4, 9.5,11.0 and 12.0)-Saturated […]
was added, respectively. Each of the tubes was vigorously mixed for 2 minutes and then shook for 1 hour at a speed of 800 rpm at room temperature. Following centrifugation at 4000 rpm for 5 minutes at room temperature, appropriate volume of buffer layer samples and 1-octanol layer samples was aliquoted. These samples were diluted and detected by using LC -MS/MS method without running a calibration curve.
The log D values were calculated with the following equation:
(also on this page, place not known: temperature , 1 -octanol Log Doctanol/buffer = log( Mean Octanol Layer Peak Area Ratio ∗ Octanol Layer Dilution Factor Mean Buffer Layer Peak Area Ratio ∗ Buffer Layer Dilution Factor) […]
(1 picture or pasted object on this page, not shown here)

GABAA receptor (GABA) = test: radioligand competition binding, [3H]Muscimol; parameters: species or system rat
Prostanoid receptor EP4 = target: T6, Prostanoid receptor EP4 (Homo sapiens, UniProt P35408); test: radioligand competition binding, [3H]Prostaglandin E2
T6 construct: Eurofins
T6 sequence (P35408 whole entry): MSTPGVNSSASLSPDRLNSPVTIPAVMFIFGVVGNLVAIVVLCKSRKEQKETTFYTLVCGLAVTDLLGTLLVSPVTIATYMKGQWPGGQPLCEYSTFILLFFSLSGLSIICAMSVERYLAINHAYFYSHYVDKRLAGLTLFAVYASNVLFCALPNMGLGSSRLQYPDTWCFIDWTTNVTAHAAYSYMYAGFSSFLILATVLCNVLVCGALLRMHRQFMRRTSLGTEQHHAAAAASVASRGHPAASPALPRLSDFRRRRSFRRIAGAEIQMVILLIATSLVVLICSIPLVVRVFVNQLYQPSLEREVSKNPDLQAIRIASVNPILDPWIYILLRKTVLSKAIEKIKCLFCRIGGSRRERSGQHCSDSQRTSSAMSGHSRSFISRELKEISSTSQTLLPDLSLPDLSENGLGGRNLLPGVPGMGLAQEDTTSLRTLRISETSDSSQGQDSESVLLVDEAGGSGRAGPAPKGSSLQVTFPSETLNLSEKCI

Adenosine receptor A2A = target: T7, Adenosine receptor A2A (Homo sapiens, UniProt P29274); test: radioligand competition binding, [3H]CGS-21680
T7 construct: Eurofins

human 5-HT2CR [4] = target: T8, human 5-HT2CR (Homo sapiens, UniProt P28335); test: Ca2+/Fluo-4 assay, antagonist mode (5-HT EC90 as agonist), stable 5-HT2CR-HEK293 cells; settings: 5-HT2CR pIC50 ± S.E.M., Table S2
T8 sequence (P28335 33-458): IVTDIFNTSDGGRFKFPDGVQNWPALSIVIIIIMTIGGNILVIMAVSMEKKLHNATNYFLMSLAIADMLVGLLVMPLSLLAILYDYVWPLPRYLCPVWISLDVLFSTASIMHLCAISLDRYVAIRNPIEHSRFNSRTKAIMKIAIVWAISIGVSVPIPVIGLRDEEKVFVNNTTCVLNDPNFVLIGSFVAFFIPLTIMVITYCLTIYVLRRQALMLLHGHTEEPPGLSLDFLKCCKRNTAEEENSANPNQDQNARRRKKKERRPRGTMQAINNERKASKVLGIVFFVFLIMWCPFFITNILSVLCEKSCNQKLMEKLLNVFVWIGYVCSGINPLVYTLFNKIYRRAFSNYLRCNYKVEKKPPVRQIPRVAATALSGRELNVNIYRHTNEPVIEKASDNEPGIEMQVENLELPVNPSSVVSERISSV

K+ Channel (KATP) = target: T9, K+ Channel (KATP) (Cricetus cricetus, UniProt Q09427); test: radioligand competition binding, [3H]Glyburide; parameters: species or system hamster
T9 construct: Eurofins

Adenosine receptor A3 = target: T10, Adenosine receptor A3 (Homo sapiens, UniProt P0DMS8); test: radioligand competition binding, [125I]AB-MECA
T10 construct: Eurofins
T10 sequence (P0DMS8 whole entry): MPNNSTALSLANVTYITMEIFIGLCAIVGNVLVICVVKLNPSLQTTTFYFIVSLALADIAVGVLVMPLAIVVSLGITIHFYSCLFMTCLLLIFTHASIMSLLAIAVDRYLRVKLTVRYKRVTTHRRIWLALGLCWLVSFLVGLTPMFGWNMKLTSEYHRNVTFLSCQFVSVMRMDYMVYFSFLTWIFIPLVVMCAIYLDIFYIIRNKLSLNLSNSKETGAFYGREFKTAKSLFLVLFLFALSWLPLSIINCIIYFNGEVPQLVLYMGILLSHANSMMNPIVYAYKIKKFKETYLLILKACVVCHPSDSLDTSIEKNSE

[5] = target: T11, Nicotinic acetylcholine receptor α3β4 (Homo sapiens, UniProt P30926+P32297); test: radioligand competition binding, [125I]Epibatidine
T11 construct: Eurofins
T11 sequence (P32297 32-505): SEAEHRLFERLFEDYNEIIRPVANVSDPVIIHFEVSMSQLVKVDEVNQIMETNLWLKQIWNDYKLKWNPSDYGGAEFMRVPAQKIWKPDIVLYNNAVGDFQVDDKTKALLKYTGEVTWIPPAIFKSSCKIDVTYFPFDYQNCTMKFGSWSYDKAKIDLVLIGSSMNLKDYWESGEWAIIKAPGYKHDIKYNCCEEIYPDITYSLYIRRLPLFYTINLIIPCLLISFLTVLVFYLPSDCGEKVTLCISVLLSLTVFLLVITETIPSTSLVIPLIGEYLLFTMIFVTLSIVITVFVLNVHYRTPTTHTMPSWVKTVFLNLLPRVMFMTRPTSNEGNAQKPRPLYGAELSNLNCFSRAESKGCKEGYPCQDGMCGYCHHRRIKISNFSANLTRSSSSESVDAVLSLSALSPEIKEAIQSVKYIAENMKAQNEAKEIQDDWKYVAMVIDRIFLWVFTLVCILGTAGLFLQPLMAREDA
T11 sequence (P30926 22-498): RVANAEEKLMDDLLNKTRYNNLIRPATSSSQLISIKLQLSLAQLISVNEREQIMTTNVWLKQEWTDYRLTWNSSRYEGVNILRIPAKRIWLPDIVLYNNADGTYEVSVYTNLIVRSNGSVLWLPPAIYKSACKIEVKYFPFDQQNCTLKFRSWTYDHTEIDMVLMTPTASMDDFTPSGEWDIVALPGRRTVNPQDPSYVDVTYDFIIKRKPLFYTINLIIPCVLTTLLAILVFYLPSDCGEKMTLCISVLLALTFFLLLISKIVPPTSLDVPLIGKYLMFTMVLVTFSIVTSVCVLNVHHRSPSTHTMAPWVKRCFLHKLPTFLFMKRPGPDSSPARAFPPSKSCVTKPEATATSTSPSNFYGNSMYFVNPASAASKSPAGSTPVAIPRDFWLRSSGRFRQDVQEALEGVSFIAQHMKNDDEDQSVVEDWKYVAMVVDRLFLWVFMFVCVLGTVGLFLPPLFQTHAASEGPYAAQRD

NMDA receptor (PCP) = test: radioligand competition binding, [3H]TCP; parameters: species or system rat
[6] = target: T12, H1 (histaminergic receptor) (Homo sapiens, UniProt P35367); test: radioligand competition binding, [3H]pyrilamine
T12 construct: Eurofins
T12 sequence (P35367 whole entry): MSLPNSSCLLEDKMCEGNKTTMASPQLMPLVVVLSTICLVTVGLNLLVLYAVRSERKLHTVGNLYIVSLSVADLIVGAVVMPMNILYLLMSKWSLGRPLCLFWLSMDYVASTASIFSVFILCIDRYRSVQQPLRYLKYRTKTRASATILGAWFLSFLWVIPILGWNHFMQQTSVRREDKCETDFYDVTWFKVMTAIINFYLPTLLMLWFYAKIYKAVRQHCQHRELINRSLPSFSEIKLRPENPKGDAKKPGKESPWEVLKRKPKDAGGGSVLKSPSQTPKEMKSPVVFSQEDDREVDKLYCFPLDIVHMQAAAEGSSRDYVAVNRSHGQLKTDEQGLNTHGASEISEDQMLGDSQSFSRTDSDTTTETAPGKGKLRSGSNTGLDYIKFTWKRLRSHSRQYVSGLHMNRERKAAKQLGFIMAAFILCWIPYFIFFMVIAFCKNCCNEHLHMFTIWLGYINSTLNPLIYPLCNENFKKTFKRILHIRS

[7] = target: T13, D5 (dopaminergic receptor) (Homo sapiens, UniProt P21918); test: radioligand competition binding, [3H]SCH 23390; settings: read-out: % inhibition of the specific radioligand binding
T13 construct: Eurofins

Glucocorticoid receptor = target: T14, Glucocorticoid receptor (Homo sapiens, UniProt P04150); test: radioligand competition binding, [3H]Dexamethasone
T14 construct: Eurofins

[8] = target: T15, H2 (histaminergic receptor) (Homo sapiens, UniProt P25021); test: radioligand competition binding, [125I]APT
T15 construct: Eurofins
T15 sequence (P25021 whole entry): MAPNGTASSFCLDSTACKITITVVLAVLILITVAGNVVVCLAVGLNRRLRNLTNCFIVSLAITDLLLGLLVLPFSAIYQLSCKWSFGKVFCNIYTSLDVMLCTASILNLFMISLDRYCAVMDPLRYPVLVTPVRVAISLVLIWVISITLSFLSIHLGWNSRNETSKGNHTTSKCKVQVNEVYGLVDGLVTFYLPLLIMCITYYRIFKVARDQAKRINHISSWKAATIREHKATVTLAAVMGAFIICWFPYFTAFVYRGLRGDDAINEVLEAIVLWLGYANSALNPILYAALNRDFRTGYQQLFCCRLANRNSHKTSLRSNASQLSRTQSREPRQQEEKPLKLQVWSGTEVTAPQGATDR

Purinergic receptor P2Y = test: radioligand competition binding, [35S]dATPαS; parameters: species or system rat
Bradykinin receptor B1 = target: T16, Bradykinin receptor B1 (Homo sapiens, UniProt P46663); test: radioligand competition binding, [3H](Des-Arg10, Leu9)-Kallidin
T16 construct: Eurofins

human 5-HT2CR [9] = target: T8, human 5-HT2CR; test: Ca2+/Fluo-4 assay, agonist mode, stable 5-HT2CR-HEK293 cells
[10] = estimated from the % inhibition data
[11] = read-out: % inhibition of the specific radioligand binding

Compound: COc1cc(C(F)(F)F)c(OC)cc1[C@@H]1CCCNC1 [(S)-11, 3-(2,5-Dimethoxy-4-(trifluoromethyl)phenyl)piperidine Hydrochloride]
- % inhibition of the specific radioligand binding (Purinergic receptor P2X; (S)-11 10 μM, n=1): -30%
- IC50 (Purinergic receptor P2X; [10]): > 10 µM
- EC50 (human 5-HT2BR): 0.19 µM
- % inhibition of the specific radioligand binding (Thyroid hormone receptor; (S)-11 10 μM, n=1): -1%
- IC50 (Thyroid hormone receptor; [10]): > 10 µM
- Papp A→B at […] (MDR1 (P-gp)): 18.4 ×10⁻⁶ cm/s
- Papp B→A at […] (MDR1 (P-gp)): 17.3 ×10⁻⁶ cm/s
- Papp A→B at […], 2 µM (MDR1 (P-gp); Figure 6): 18.6 ×10⁻⁶ cm/s
- Papp B→A at […], 2 µM (MDR1 (P-gp); Figure 6): 17.3 ×10⁻⁶ cm/s
- IC50 (Sigma receptor σ1; [10]): 1 to 10 µM
- inhibition at 10 µM (Sigma receptor σ1; [11]): 84%
- IC50 (Tachykinin receptor NK3; [10]): > 10 µM
- inhibition at 10 µM (Tachykinin receptor NK3; [11]): 14%
- IC50 [1, 10]: > 10 µM
- inhibition at 10 µM [1, 11]: -7%
- IC50 [2, 10]: > 10 µM
- inhibition at 10 µM [2, 11]: 27%
- logP at 1 h ([3]; main text and Figure 6): 3.45
- logD ([3]; pH 1.8, read-out: Log D (pH 1.8)): -0.815
- logD ([3]; pH 2.5, read-out: log D (pH2.5)): -0.536
- logD ([3]; pH 4.5, read-out: log D (pH4.5)): -0.376
- logD ([3]; pH 7.4, read-out: log D (pH7.4)): 0.659
- logD ([3]; pH 9.5, read-out: log D (pH9.5)): 1.99
- logD ([3]; pH 11.0, read-out: log D (pH11.0)): 3.4
- logD ([3]; pH 12.0, read-out: log D (pH12.0)): 3.5
- % inhibition of the specific radioligand binding (GABAA receptor (GABA); (S)-11 10 μM, n=1): 1%
- IC50 (GABAA receptor (GABA); [10]): > 10 µM
- IC50 (Prostanoid receptor EP4; [10]): > 10 µM
- inhibition at 10 µM (Prostanoid receptor EP4; [11]): 9%
- IC50 (Adenosine receptor A2A; [10]): > 10 µM
- inhibition at 10 µM (Adenosine receptor A2A; [11]): -19%
- IC50 (human 5-HT2CR [4]): 0.316 µM
- IC50 (K+ Channel (KATP); [10]): > 10 µM
- inhibition at 10 µM (K+ Channel (KATP); [11]): -2%
- IC50 (Adenosine receptor A3; [10]): > 10 µM
- inhibition at 10 µM (Adenosine receptor A3; [11]): -10%
- IC50 [5]: ~10 µM
- inhibition at 10 µM [5, 11]: 51%
- % inhibition of the specific radioligand binding (NMDA receptor (PCP); (S)-11 10 μM, n=1): 4%
- IC50 (NMDA receptor (PCP); [10]): > 10 µM
- IC50 [6, 10]: 1 to 10 µM
- inhibition at 1 µM [6, 11]: 19%
- inhibition at 10 µM [6, 11]: 64%
- inhibition at 10 µM [7]: 26%
- IC50 (Glucocorticoid receptor; [10]): > 10 µM
- inhibition at 10 µM (Glucocorticoid receptor; [11]): 11%
- IC50 [8, 10]: > 10 µM
- inhibition at 10 µM [8, 11]: 10%
- % inhibition of the specific radioligand binding (Purinergic receptor P2Y; (S)-11 10 μM, n=1): 2%
- IC50 (Purinergic receptor P2Y; [10]): > 10 µM
- IC50 (Bradykinin receptor B1; [10]): > 10 µM
- inhibition at 10 µM (Bradykinin receptor B1; [11]): 12%
- agonist activity at 5-HT2CR (in words) (human 5-HT2CR [9]): negligible agonist efficacy; also recorded: absence of measurable agonist efficacy
- EC50 (human 5-HT2CR [9]; 5-HT2CR EC50 (nM), Table 1, at least 3 independent experiments): > 50000 nM
- agonist activity at 5-HT2CR (in words) (human 5-HT2CR [9]; listed as 11eu): did not elicit measurable agonist activity
